Columns and labels:
MRP1 = MRP1 (Homo sapiens, UniProt P33527); format: in vitro ADME
MRP4 = target: T1, MRP4 (Homo sapiens, UniProt O15439); format: in vitro ADME
T1 sequence (O15439 1-1325): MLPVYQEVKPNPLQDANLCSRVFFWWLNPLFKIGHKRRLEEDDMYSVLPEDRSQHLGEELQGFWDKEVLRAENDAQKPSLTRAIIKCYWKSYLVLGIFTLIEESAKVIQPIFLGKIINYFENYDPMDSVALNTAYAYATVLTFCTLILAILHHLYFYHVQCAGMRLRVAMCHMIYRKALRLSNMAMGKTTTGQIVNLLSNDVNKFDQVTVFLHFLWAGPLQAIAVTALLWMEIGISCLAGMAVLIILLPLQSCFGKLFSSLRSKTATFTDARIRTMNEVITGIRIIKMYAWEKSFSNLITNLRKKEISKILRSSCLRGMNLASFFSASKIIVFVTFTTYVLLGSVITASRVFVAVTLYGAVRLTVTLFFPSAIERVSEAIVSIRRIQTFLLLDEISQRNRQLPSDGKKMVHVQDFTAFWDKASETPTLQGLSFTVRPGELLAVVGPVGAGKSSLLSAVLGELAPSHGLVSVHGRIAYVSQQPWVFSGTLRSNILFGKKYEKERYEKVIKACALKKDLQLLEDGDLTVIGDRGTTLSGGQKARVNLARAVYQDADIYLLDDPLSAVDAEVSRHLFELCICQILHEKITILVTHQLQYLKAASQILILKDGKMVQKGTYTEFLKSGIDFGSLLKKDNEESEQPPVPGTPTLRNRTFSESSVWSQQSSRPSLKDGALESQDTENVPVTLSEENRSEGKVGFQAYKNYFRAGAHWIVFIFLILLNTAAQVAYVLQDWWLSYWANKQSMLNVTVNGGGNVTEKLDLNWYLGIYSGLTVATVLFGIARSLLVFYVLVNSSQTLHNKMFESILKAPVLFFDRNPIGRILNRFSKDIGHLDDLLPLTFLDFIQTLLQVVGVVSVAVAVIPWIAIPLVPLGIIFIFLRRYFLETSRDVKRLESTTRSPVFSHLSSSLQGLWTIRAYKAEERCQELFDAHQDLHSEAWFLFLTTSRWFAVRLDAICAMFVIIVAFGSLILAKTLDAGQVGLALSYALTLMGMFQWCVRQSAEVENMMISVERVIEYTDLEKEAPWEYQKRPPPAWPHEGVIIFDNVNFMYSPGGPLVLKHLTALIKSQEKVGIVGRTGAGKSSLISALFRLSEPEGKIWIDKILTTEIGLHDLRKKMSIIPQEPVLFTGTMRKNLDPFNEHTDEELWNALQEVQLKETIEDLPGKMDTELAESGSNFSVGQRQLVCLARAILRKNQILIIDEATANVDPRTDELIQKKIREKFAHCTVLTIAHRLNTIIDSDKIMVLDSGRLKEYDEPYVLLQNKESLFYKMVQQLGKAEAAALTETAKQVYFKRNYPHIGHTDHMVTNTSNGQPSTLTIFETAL

HeLa1A1 cell lysate [1] = target: T2, HeLa1A1 cell lysate (Homo sapiens, UniProt P22309); assay: Chemical inhibition of cycloicaritin-3-O-glucuronidation by HeLa1A1 cell lysate; format: biochemical; settings: cycloicaritin 8 μM
T2 sequence (P22309 26-533): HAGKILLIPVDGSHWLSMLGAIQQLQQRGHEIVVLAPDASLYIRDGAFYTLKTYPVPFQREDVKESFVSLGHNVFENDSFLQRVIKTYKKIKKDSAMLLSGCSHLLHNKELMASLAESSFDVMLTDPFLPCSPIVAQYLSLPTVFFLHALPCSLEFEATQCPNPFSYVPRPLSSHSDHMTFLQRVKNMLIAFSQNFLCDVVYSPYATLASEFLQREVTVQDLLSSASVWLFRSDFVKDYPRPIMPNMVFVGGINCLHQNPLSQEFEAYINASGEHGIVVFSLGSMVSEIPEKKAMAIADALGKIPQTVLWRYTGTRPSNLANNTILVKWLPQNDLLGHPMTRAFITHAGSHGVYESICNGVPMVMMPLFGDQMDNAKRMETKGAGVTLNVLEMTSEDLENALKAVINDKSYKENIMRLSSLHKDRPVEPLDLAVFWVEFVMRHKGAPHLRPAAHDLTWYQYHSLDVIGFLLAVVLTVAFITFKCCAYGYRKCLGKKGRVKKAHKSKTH

recombinant UGT1A1 [2] = target: T3, recombinant UGT1A1 (Homo sapiens, UniProt P22309); assay: Chemical inhibition of cycloicaritin-3-O-glucuronidation by recombinant UGT1A1; format: biochemical; settings: cycloicaritin 8 μM
T3 sequence (P22309 26-533): T2 sequence (P22309 26-533)

MRPs = assay: Effects of MRPs inhibitors on excretion of CICT-3-G in HeLa1A1 cells; format: cell-based, human; settings: inhibitor 0.05 and 0.2 μM, cycloicaritin 8 μM
[3] = Metabolite formation from cycloicaritin by wild-type HeLa cell lysate; format: in vitro ADME, human; settings: cycloicaritin 8 μM, 2 h
recombinant UGT1A1 [4] = target: T3, recombinant UGT1A1; assay: Kinetics of cycloicaritin-3-O-glucuronidation by recombinant UGT1A1; format: in vitro ADME; settings: Hill equation
HeLa1A1 cell lysate [5] = target: T2, HeLa1A1 cell lysate; assay: Kinetics of cycloicaritin-3-O-glucuronidation by HeLa1A1 cell lysate; format: in vitro ADME; settings: Hill equation
[6] = cited from earlier work
[7] = cited from earlier work; remark: listed apart in the source

Sequence of MRP1 (P33527 whole entry): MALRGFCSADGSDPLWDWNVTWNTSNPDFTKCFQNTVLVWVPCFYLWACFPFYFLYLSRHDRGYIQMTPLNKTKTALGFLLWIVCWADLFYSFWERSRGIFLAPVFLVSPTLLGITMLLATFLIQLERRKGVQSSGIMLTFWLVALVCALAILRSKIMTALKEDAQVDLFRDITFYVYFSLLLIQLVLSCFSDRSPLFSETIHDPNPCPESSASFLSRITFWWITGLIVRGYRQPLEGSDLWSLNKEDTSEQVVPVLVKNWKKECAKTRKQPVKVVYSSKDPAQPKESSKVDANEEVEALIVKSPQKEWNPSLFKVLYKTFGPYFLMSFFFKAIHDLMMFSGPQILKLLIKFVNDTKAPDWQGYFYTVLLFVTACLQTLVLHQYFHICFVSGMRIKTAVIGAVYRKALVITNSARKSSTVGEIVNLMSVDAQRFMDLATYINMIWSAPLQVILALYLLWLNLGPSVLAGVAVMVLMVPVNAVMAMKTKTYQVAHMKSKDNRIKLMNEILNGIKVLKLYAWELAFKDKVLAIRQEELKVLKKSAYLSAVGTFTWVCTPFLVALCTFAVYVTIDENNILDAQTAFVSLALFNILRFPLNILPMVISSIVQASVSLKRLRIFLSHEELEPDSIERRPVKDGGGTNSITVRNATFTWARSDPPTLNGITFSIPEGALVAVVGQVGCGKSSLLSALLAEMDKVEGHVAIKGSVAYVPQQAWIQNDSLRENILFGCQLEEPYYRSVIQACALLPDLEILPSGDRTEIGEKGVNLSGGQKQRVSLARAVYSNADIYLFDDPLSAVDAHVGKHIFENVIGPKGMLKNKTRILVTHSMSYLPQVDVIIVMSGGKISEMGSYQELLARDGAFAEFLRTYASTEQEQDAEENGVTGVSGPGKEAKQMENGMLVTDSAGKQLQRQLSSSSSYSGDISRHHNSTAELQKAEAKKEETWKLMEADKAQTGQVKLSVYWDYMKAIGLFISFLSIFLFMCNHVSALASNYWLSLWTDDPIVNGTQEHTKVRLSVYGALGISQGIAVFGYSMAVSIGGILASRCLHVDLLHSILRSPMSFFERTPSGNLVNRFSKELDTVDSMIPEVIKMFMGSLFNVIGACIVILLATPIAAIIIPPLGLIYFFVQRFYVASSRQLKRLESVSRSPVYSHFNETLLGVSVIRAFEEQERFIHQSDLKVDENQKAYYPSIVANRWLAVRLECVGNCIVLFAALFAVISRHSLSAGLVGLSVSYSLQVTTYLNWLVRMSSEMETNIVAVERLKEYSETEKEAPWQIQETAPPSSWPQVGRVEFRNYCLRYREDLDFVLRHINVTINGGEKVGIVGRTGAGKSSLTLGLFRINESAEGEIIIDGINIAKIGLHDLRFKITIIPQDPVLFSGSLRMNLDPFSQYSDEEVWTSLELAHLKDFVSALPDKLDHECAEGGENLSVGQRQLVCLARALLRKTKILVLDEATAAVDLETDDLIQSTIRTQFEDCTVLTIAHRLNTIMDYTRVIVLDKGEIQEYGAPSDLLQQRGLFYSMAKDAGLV

Q: Which “decrease of the efflux clearance of CICT-3-G” value (MRP1) does the source give for `COc1ccc(-c2oc3c4c(cc(O)c3c(=O)c2O[C@@H]2O[C@H](C(=O)O)[C@@H](O)[C@H](O)[C@H]2O)OC(C)(C)CC4)cc1` [CICT-3-G, cycloicaritin-3-O-glucuronide] here?
A: Its value is 52.0%.

Q: And the “decrease in the efflux clearance of CICT-3-G” value (MRP4)?
A: The value was 28.7%.

Q: For `COc1ccc2c3c([nH]c2c1)[C@H](CC(C)C)N1C(=O)[C@H](CCC(=O)OC(C)(C)C)NC(=O)[C@@H]1C3` [Ko143], which “remaining cycloicaritin-3-O-glucuronidation activity, % of the control values” (HeLa1A1 cell lysate [1]; inhibitor 20 μM) is on record?
A: The value was 8.8%.

Q: And the “remaining cycloicaritin-3-O-glucuronidation activity, % of the control values” (recombinant UGT1A1 [2]; inhibitor 20 μM)?
A: Its value is 12.5%.

Q: With `CCCCC/C=C\C\C=C/C=C/C=C/[C@@H](SC[C@H](NC(=O)CC[C@H](N)C(=O)O)C(=O)NCC(=O)O)[C@@H](O)CCCC(=O)O` [LTC4, leukotriene C4] as the molecule, how does the “effect on CLapp value of CICT-3-G” value (MRPs) read?
A: Its value is “no significant changes”.

Q: And the “effect on fmet value of CICT-3-G” value (MRPs)?
A: The value was “no significant changes”.

Q: And the “effect on the intracellular level of CICT-3-G” value (MRPs)?
A: The value was “did not alter”.

Q: What about the “effect on the rate of efflux excretion of CICT-3-G” value (MRPs) of the same molecule?
A: Its value is “did not alter”.

Q: And the “effect on cycloicaritin-3-O-glucuronidation activity” value (HeLa1A1 cell lysate [1]; inhibitor 0.05 and 0.2 μM)?
A: The value was “did not alter”.

Q: What about the “effect on cycloicaritin-3-O-glucuronidation activity” value (recombinant UGT1A1 [2]; inhibitor 0.05 and 0.2 μM) of the same molecule?
A: Its value is “did not alter”.

Q: For `COc1ccc(-c2oc3c4c(cc(O)c3c(=O)c2O)OC(C)(C)CC4)cc1` [cycloicaritin, Cycloicaritin], which “metabolites detected after incubation with cell lysate” value [3] is on record?
A: Its value is “no metabolites were detected”.

Q: What about the “CLmax of cycloicaritin-3-O-glucuronidation” value (recombinant UGT1A1 [4]) of the same molecule?
A: The value was 190 µL/min/mg.

Q: And the “S50 of cycloicaritin-3-O-glucuronidation” value (recombinant UGT1A1 [4])?
A: Its value is 1.43 µM.

Q: And the “n (Hill coefficient) of cycloicaritin-3-O-glucuronidation” value (recombinant UGT1A1 [4])?
A: Its value is 1.67 µM.

Q: What about the “Vmax of cycloicaritin-3-O-glucuronidation” value (recombinant UGT1A1 [4]; cycloicaritin 0.1-10 μM) of the same molecule?
A: The value was 0.54 nmol/min/mg.

Q: And the “CLmax of cycloicaritin-3-O-glucuronidation” value (HeLa1A1 cell lysate [5])?
A: Its value is 17 µL/min/mg.

Q: What about the “S50 of cycloicaritin-3-O-glucuronidation” value (HeLa1A1 cell lysate [5]) of the same molecule?
A: Its value is 1.19 µM.

Q: And the “n (Hill coefficient) of cycloicaritin-3-O-glucuronidation” value (HeLa1A1 cell lysate [5])?
A: Its value is 1.71 µM.

Q: And the “Vmax of cycloicaritin-3-O-glucuronidation” value (HeLa1A1 cell lysate [5]; cycloicaritin 0.1-10 μM)?
A: The value was 0.04 nmol/min/mg.

Q: With `COc1ccc(-c2oc3c(CC=C(C)C)c(O)cc(O)c3c(=O)c2O)cc1` [icaritin] as the molecule, how does the “CLint of glucuronidation in human liver” value [6] read?
A: Its value is greater than 350 µL/min/mg.

Q: What about the “CLint of glucuronidation in human intestine” value [7] of the same molecule?
A: Its value is greater than 180 µL/min/mg.

Q: With `COc1ccc(-c2oc3c(CCC(C)(C)O)c(O)cc(O)c3c(=O)c2O)cc1` [wushanicaritin] as the molecule, how does the “CLint of glucuronidation in human liver” value [6] read?
A: The value was greater than 350 µL/min/mg.

Q: What about the “CLint of glucuronidation in human intestine” value [7] of the same molecule?
A: The value was greater than 180 µL/min/mg.
